The subject of test [1] is genotype A, "Long" strain RSV. As to the kind of experiment: RSV-A assay (CPE protection in Hep-2 cells, ATPlite readout). The settings on record: human respiratory syncytial virus, MOI 0.1, CPE protection. The class given is cell-based, Human respiratory syncytial virus (HRSV). The gist of the method: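 In this cytopathic-effect protection format, infected Hep-2 cultures (MOI 0.1) are exposed to compound for 5 days. Surviving cell ATP is quantified with ATPlite, and EC50 is determined.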

In test [2] the test system is HMPV clinical isolate TN/1501/A1. As to the kind of experiment: HMPV antiviral assay Method-B (clinical isolate TN/1501/A1 in LLC-MK2 cells, ATP-Lite readout). The class given is cell-based, Human metapneumovirus (HMPV). The settings on record: human metapneumovirus, LLC-MK2, 144 h, hMPV WT1501 (clinical isolate TN/1501/A1), 6 days. The gist of the method: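 EC50 derived by four-parameter logistic fit of percent cell health, measured by ATP-Lite luminescence and normalised to virus-only and uninfected-cell controls. Compounds run in duplicate from 10 μM top, 3-fold, 10 points. Infection: LLC-MK2 cells, MOI 0.014, 2 μg/mL final TPCK-trypsin, serum-free, 6 days at 37° C.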

[3] abbreviates: genotype A “Long” strain RSV, read-out: Human RSV-A (“Long”).
The mark [4] stands for this setting: RSV-A Long strain, read-out: Human RSV-A (“Long”) EC50.

Where two headings read alike, the source gives them in different places.

With `COc1cc(C(=O)NC[C@](O)(c2cc3c(c(-c4ccc(F)cc4)n2)OC[C@]3(C)C(N)=O)C2(F)CC2)cc2cc(Cl)c(C)nc12` [Example 707], the results for the EC50 in test [1] (setting [3]) and in test [2] were below 200 nM and below 500 nM, respectively.
As for `COc1cc(C(=O)NC[C@](O)(c2cc3c(c(-c4ccc(Cl)c(C(F)(F)F)c4)n2)OC[C@]3(C)C(N)=O)C(F)(F)F)cc2cn(C3CC3)nc12` [Example 972], the EC50 in test [1] (setting [4]) is below 200 nM; in test [2], below 500 nM.
Take `Cc1cnc2c(OC(F)F)cc(C(=O)NC[C@](O)(c3cc4c(c(-c5ccc(F)c(Cl)c5)n3)OC[C@@]4(C(N)=O)C(F)F)C3CC3)cc2c1` [Example 1029]: the EC50 is below 200 nM in test [1] (setting [4]) and below 500 nM in test [2].
Regarding `COc1cc(C(=O)NC[C@@](O)(c2cc3c(c(-c4cccc(OC(F)F)c4)n2)OC[C@]3(C)C(N)=O)C(F)(F)F)cc2cn(C3CC3)nc12` [Example 917], the values for the EC50 in test [1] (setting [4]) and in test [2] were below 200 nM and above 500 nM, respectively.
On to `Cc1cnc2c(OC(F)F)cc(C(=O)NC[C@](O)(c3cc4c(c(-c5ccc(F)c(Cl)c5)n3)OC[C@]4(C(N)=O)C(F)F)C(F)(F)F)cc2c1` [Example 1008], for which the EC50 in test [1] (setting [4]) was above 200 nM; in test [2], above 500 nM.
As for `C[C@]1(C(N)=O)COc2c1cc([C@@](O)(CNC(=O)c1cc(OC3CC3)c3nn(C4(F)CC4)cc3c1)C(F)(F)F)nc2-c1csc2c(F)cccc12` [Example 605], the EC50 in test [1] (setting [3]) is below 200 nM; in test [2] it was below 500 nM.
Regarding `COc1cc(C(=O)NC[C@](O)(c2cc3c(c(-c4c(F)cc(Cl)cc4F)n2)OC[C@]3(C)C(N)=O)C2CC2)cc2cn(C3CC3)nc12` [Example 1155], the EC50 was below 200 nM in test [1] (setting [4]) and below 500 nM in test [2].
In the case of `COc1cc(C(=O)NC[C@](O)(c2cc3c(c(-c4ccc(F)cc4)n2)OC[C@]3(C)C(N)=O)C2(F)CC2)cc2cc(C3CC3)nn12` [Example 706], the EC50 in test [1] (setting [3]) is below 200 nM; in test [2], below 500 nM.
Taken in the same sequence, the figures for `Cc1cnc2c(OC(F)F)cc(C(=O)NC[C@](O)(c3cc4c(c(-c5ccc(F)cc5Cl)n3)OC[C@]4(C)C(N)=O)C3(F)CC3)cc2c1` [Example 733] were below 200 nM and below 500 nM.
Consider `COc1cc(C(=O)NC[C@](O)(c2cc3c(c(-c4ccc5c(c4)OC(F)(F)O5)n2)OC[C@@]3(C(N)=O)C(F)F)C(F)(F)F)cc2cn(C3CC3)nc12` [Example 1035], for which the EC50 in test [1] (setting [4]) is below 200 nM; in test [2] it was below 500 nM.
Take `COc1cc(C(=O)NC[C@](O)(c2cc3c(c(-c4cccs4)n2)OC[C@]3(C)C(N)=O)C(F)(F)F)cc2cn(C3CC3)nc12` [Example 968]: the EC50 is above 200 nM in test [1] (setting [4]) and above 500 nM in test [2].
In the case of `C[C@]1(C(N)=O)COc2c1cc([C@@](O)(CNC(=O)c1ccc(F)c(NC(=O)NC3CC3)c1)C(F)(F)F)nc2-c1ccc(F)cc1` [Example 623], the values for the EC50 in test [1] (setting [3]) and in test [2] were below 200 nM and above 500 nM, respectively.
In the case of `COc1cc(C(=O)NC[C@](O)(c2cc3c(c(-c4ccc(F)c(Cl)c4)n2)OC[C@]3(CF)C(N)=O)C(F)(F)F)cc2cn(C3CC3)nc12` [Example 1052], the EC50 in test [1] (setting [4]) was below 200 nM; in test [2], below 500 nM.
Regarding `Cc1cnc2c(Cl)cc(C(=O)NC[C@](O)(c3cc4c(c(-c5ccc(F)cc5Cl)n3)OC[C@]4(C)C(N)=O)C(F)(F)F)cc2c1` [Example 517], the EC50 in test [1] (setting [3]) is below 200 nM; in test [2], below 500 nM.
Turning to `COc1cc(C(=O)NC[C@](O)(c2cc3c(c(-c4ccc(F)c(F)c4F)n2)OC[C@]3(C)C(N)=O)C2CC2)cc2cn(C3(F)CC3)nc12` [Example 537], the EC50 is below 200 nM in test [1] (setting [3]) and below 500 nM in test [2].
As for `COc1cc(C(=O)NC[C@](O)(c2cc3c(c(-c4c(F)ccc(Cl)c4F)n2)OC[C@]3(C)C(N)=O)C2CC2)cc2cc(Cl)c(C)nc12` [Example 1168], the EC50 is below 200 nM in test [1] (setting [4]) and below 500 nM in test [2].
Consider `COc1cc(C(=O)NC[C@](O)(c2cc3c(c(-c4ccc(F)cc4)n2)OC[C@]3(C)C(N)=O)C2(F)CC2)cc2sc(C)nc12` [Example 724], for which the EC50 in test [1] (setting [3]) is below 200 nM; in test [2], below 500 nM.

The values above are taken from US12612412B2, “Antiviral heterocyclic compounds” (Enanta Pharmaceuticals, Inc., priority 2021, dated 2026).
